13 compounds from US10179125B2, “Substituted pyridines as bromodomain inhibitors” (Zenith Epigenetics Ltd., priority 2014, dated 2019) can be followed below.

In test [1] the target is T1, Brd4 bromodomain 1 (BRD4(1)) (Homo sapiens, UniProt O60885).
T1 construct: made in house; host or cells: E. coli BL21(DE3)
In words: Inhibition of tetra-acetylated histone H4 binding to BET bromodomain (HTRF/FRET). Conditions: His-tagged bromodomain 200 nM, biotinylated tetra-acetylated histone H4 peptide, 2 h room temperature. The gist of the method:
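His-tagged BRD4(1) (200 nM, E. coli-expressed) incubated with biotinylated tetra-acetylated histone H4 peptide (25-50 nM) plus Eu-cryptate streptavidin and XL665 anti-His, with compound (0.2% DMSO), 2 h at room temperature in HEPES pH 7.4 buffer. HTRF 665/620 nm ratio decrease gives IC50.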

In a further test the test system is Human AML MV-4-11 cells. The test is described as follows: Inhibition of cell proliferation in MV4-11 cells (CellTiter Aqueous One). The test is classed as cell-based. The conditions noted are these: Homo sapiens, 72 h. The gist of the method:
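MV4-11 cells (5×10^4/well) in IMDM + 10% FBS were treated with graded compound or 0.1% DMSO for 72 h at 37 °C, 5% CO2, in triplicate. CellTiter Aqueous One was added for 3–4 h and absorbance read at 490 nm. Background-corrected signal was expressed relative to DMSO and used to calculate IC50.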

Another test has as its system hIL-6. The test is described as follows: Inhibition of hIL-6 mRNA transcription in LPS-stimulated U937 cells. The test is classed as cell-based, Human. The conditions noted are these: Homo sapiens, U-937, PMA-differentiated U937 cells, 1 h pretreatment, LPS 3 h, read-out: IL-6 activity. The gist of the method:
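U937 cells differentiated 3 days with 60 ng/mL PMA, pretreated 1 h with compound (0.1% DMSO), then stimulated with 1 ug/mL E. coli LPS for 3 h at 37 °C. IL-6 mRNA measured by one-step TaqMan qRT-PCR, normalized to cyclophilin; fold expression relative to control, triplicate wells.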

The subject of a further test is hIL-17. The test is described as follows: Inhibition of hIL-17 mRNA transcription in OKT3-stimulated peripheral blood mononuclear cells. In kind it is cell-based. The conditions noted are these: human PBMC, OKT3 antibody 6 h, read-out: IL-17 activity. As to the method:
Human peripheral blood mononuclear cells were plated (2.0×10^5 cells per well) in a 96-well plate in 45 μL OpTimizer T Cell expansion media (Life Technologies) containing 20 ng/ml IL-2 and penicillin/streptomycin. The cells were treated with increasing concentrations of the test compound or DMSO (0.1%), and incubated at 37° C., 5% CO2 for 1 h before addition of 10× stock OKT3 antibody at 10 ug/ml in media. Triplicate wells were used for each concentration, Cells were incubated at 37° C., 5% CO2 for 6 h before the cells were harvested. At time of harvest, cells were pelleted by centrifugation at 800 rpm for 5 min. Cells were harvested using the mRNA Catcher PLUS kit according to manufacturer's instructions. The eluted mRNA was then used in a one-step quantitative real-time PCR reaction, using components of the RNA UltraSense™ One-Step Kit (Life Technologies) together with Applied Biosystems TaqMan® primer-probes for hIL-17 and Cyclophilin. Real-time PCR plates were run on a ViiA™ 7 real time PCR machine (Applied Biosystems), data was analyzed, normalizing the Ct values for hIL-17 to an internal control, prior to determining the fold induction of each unknown sample, relative to the control.

A further test deals with cMYC. In words: Inhibition of cMYC expression in MV4-11 cells (real-time PCR). The test is classed as cell-based, Human. Conditions: Homo sapiens, 3 h, cMYC mRNA, read-out: c-myc activity. The gist of the method: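 MV4-11 cells (2.5×10^4/well) treated 3 h at 37° C with compound in IMDM/10% FBS, 0.1% DMSO vehicle, in triplicate. cMYC mRNA quantified by one-step TaqMan RT-qPCR, Ct normalised to cyclophilin; fold expression relative to DMSO control.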

For a further test, the system named is hApoA-I. In words: Up-regulation of hApoA-1 mRNA transcription in Huh7 cells. The test is classed as cell-based. The conditions noted are these: EC170, Huh7 cells, 48 h. As to the method:
In this example, hApoA-I mRNA in tissue culture cells was quantitated to measure the transcriptional up-regulation of hApoA-I when treated with a compound of the present disclosure.
Huh7 cells (2.5×10^5 per well) were plated in a 96-well plate using 100 μL DMEM per well, (Gibco DMEM supplemented with penicillin/streptomycin and 10% FBS), 72 h before the addition of the compound. The cells are treated with increasing concentrations of the compound or […] (0.1%), and incubated at 37° C., 5% CO2 for 48 h. Spent media was removed from the Huh-7 cells and placed on ice for immediate use with the “LDH cytotoxicity assay Kit II” from Abcam. The cells remaining in the plate were rinsed with 100 μL PBS. Cells were harvested using the mRNA Catcher PLUS kit according to manufacturer's instructions. The eluted mRNA was then used in a one-step quantitative real-time PCR reaction, using components of the RNA UltraSense™ One-Step Kit (Life Technologies) together with Applied Biosystems TaqMan® primer-probes for hApoA-I and Cyclophilin. Real-time PCR plates were run on a ViiA™7 real time PCR machine (Applied Biosystems), data was analyzed, normalizing the Ct values for hApoA-1 to an internal control, prior to determining the fold induction of each unknown sample, relative to the control.

As to `COc1ncc(-c2c(C)noc2C)cc1NCc1ccc(Cl)cc1` [Example 14, N-(4-chlorobenzyl)-5-(3,5-dimethylisoxazol-4-yl)-2-methoxypyridin-3-amine], the IC50 in test [1] is at most 300 nM; in the test on Human AML MV-4-11 cells, 3000 to 30000 nM; in the test on hIL-6 it was 3000 to 30000 nM; in the test on hIL-17, 300 to 3000 nM.
In the case of `COc1ncc(-c2c(C)noc2C)cc1NCc1ccc(F)cc1` [Example 6, 5-(3,5-dimethylisoxazol-4-yl)-N-(4-fluorobenzyl)-2-methoxypyridin-3-amine], the IC50 is at most 300 nM in test [1]; 300 to 3000 nM with cMYC; 3000 to 30000 nM in the test on Human AML MV-4-11 cells; 300 to 3000 nM in the test on hIL-6; 300 to 3000 nM in the test with hIL-17.
Consider `COc1ncc(-c2c(C)noc2C)cc1Nc1c(C)noc1C` [Example 43, N-(5-(3,5-dimethylisoxazol-4-yl)-2-methoxypyridin-3-yl)-3,5-dimethylisoxazol-4-amine], for which the IC50 in test [1] was at most 300 nM; in the test with cMYC it was at most 300 nM; in the test with Human AML MV-4-11 cells, 300 to 3000 nM; in the test on hIL-6, at most 300 nM; with hIL-17 it was 300 to 3000 nM.
Take `COc1ncc(-c2c(C)noc2C)cc1Nc1cccnc1` [Example 1, 5-(3,5-dimethylisoxazol-4-yl)-2-methoxy-N-(pyridin-3-yl)pyridin-3-amine]: the IC50 in test [1] was 300 to 3000 nM; in the test with cMYC, 3000 to 30000 nM; in the test on Human AML MV-4-11 cells, 3000 to 30000 nM; in the test with hIL-6 it was 3000 to 30000 nM. Further, the ApoA-1 activity result with hApoA-I was “++ (EC170 value between 0.3 and 3 μM were deemed to be very active (++))”.
For `COc1ncc(-c2c(C)noc2C)cc1NCc1ccccc1` [Example 2, N-benzyl-5-(3,5-dimethylisoxazol-4-yl)-2-methoxypyridin-3-amine], the IC50 in test [1] was at most 300 nM; in the test with cMYC it was 300 to 3000 nM; in the test on Human AML MV-4-11 cells, 300 to 3000 nM; with hIL-6, 300 to 3000 nM; in the test on hIL-17, 300 to 3000 nM. Moreover, in the test on hApoA-I, the ApoA-1 activity result was “++ (EC170 value between 0.3 and 3 μM were deemed to be very active (++))”.
Regarding `COc1ncc(-c2c(C)noc2C)cc1NCc1ccsc1` [Example 9, 5-(3,5-dimethylisoxazol-4-yl)-2-methoxy-N-(thiophen-3-ylmethyl)pyridin-3-amine], the IC50 in test [1] was at most 300 nM; in the test on cMYC, 300 to 3000 nM; in the test on Human AML MV-4-11 cells, 300 to 3000 nM; in the test on hIL-6, at most 300 nM; with hIL-17, 300 to 3000 nM. In addition, the ApoA-1 activity result in the test with hApoA-I is “++ (EC170 value between 0.3 and 3 μM were deemed to be very active (++))”.
Turning to `CNc1ncc(-c2c(C)noc2C)cc1NCc1ccccc1` [Example 45, N3-benzyl-5-(3,5-dimethylisoxazol-4-yl)-N2-methylpyridine-2,3-diamine], the IC50 was at most 300 nM in test [1]; 300 to 3000 nM in the test on cMYC; 300 to 3000 nM in the test on Human AML MV-4-11 cells; at most 300 nM in the test with hIL-6; 300 to 3000 nM in the test on hIL-17.
On to `COc1ncc(-c2c(C)noc2C)cc1NCc1ccc(C#N)cc1` [Example 11, 4-(((5-(3,5-dimethylisoxazol-4-yl)-2-methoxypyridin-3-yl)amino)methyl)benzonitrile], for which the IC50 in test [1] is at most 300 nM; in the test with cMYC it was 300 to 3000 nM; in the test on Human AML MV-4-11 cells, 3000 to 30000 nM; with hIL-6, 300 to 3000 nM; in the test with hIL-17 it was 300 to 3000 nM.
On to `COc1ncc(-c2c(C)noc2C)cc1OCc1ccccc1` [Example 10, 4-(5-(benzyloxy)-6-methoxypyridin-3-yl)-3,5-dimethylisoxazole], for which the IC50 is at most 300 nM in test [1]; 300 to 3000 nM with cMYC; 3000 to 30000 nM in the test on Human AML MV-4-11 cells; 300 to 3000 nM in the test on hIL-6; 3000 to 30000 nM with hIL-17.
For `COc1ncc(-c2c(C)noc2C)cc1Oc1ccccc1` [Example 4, 4-(6-methoxy-5-phenoxypyridin-3-yl)-3,5-dimethylisoxazole], the IC50 in test [1] lay in the range of 300 to 3000 nM; in the test on cMYC, 300 to 3000 nM; with Human AML MV-4-11 cells, 3000 to 30000 nM; in the test on hIL-6, 300 to 3000 nM.
On to `COc1ncc(-c2c(C)noc2C)cc1NCc1cnoc1` [Example 42, 5-(3,5-dimethylisoxazol-4-yl)-N-(isoxazol-4-ylmethyl)-2-methoxypyridin-3-amine], for which the IC50 in test [1] is at most 300 nM; in the test on cMYC, 300 to 3000 nM; in the test on Human AML MV-4-11 cells it was 3000 to 30000 nM; in the test on hIL-6, 300 to 3000 nM.
On to `COc1ncc(-c2c(C)noc2C)cc1NCc1cccc2ncccc12` [Example 58, 5-(3,5-dimethylisoxazol-4-yl)-2-methoxy-N-(quinolin-5-ylmethyl)pyridin-3-amine], for which the IC50 in test [1] was at most 300 nM; with cMYC it was 300 to 3000 nM; with Human AML MV-4-11 cells it was 300 to 3000 nM; in the test with hIL-6, 300 to 3000 nM.
As to `COc1ncc(-c2c(C)noc2C)cc1NCc1ccc(Cl)s1` [Example 8, N-((5-chlorothiophen-2-yl)methyl)-5-(3,5-dimethylisoxazol-4-yl)-2-methoxypyridin-3-amine], the IC50 in test [1] was at most 300 nM; with cMYC, 3000 to 30000 nM; in the test with Human AML MV-4-11 cells, 3000 to 30000 nM; in the test on hIL-6 it was 300 to 3000 nM.
